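A five-concentration, 48-hour dose response in 96-well plates underlies each endpoint, interpolated linearly between surrounding concentrations. The concentration for 50% growth inhibition is given as GI50.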 Active and inactive are the calls of the source. Cut-off read from the data, not from the text of the source: active = GI50 up to about 1.1 µM and inactive = higher.
How the values were obtained:
Experiment in all cases: inhibition of tumour cell growth, NCI panel, 48 h
SK-MEL-28 = tested on: SK-MEL-28
SF-268 = tested on: SF-268
COLO 205 = tested on: COLO 205
HCT-116 = tested on: HCT-116
MOLT-4 = tested on: MOLT-4
IGROV-1 = tested on: IGROV-1
M14 = tested on: M14
HOP-92 = tested on: HOP-92
SK-MEL-2 = tested on: SK-MEL-2
Malme-3M = tested on: Malme-3M
TK-10 = tested on: TK-10
OVCAR-5 = tested on: OVCAR-5
NCI-H23 = tested on: NCI-H23
U-251 = tested on: U-251
SW-620 = tested on: SW-620
UO-31 = tested on: UO-31
UACC-257 = tested on: UACC-257

Measured: GI50

N#CC1(Cc2ccccc2Cl)c2ccccc2C=CN1C(=O)c1ccccc1 (configuration not stated)
inactive: SK-MEL-28 54.8 µM | SF-268 > 100 µM | COLO 205 > 100 µM | HCT-116 > 100 µM | MOLT-4 28.4 µM | IGROV-1 > 100 µM | M14 > 100 µM | HOP-92 52.7 µM | SK-MEL-2 > 100 µM | Malme-3M 34.1 µM | TK-10 46.8 µM | OVCAR-5 > 100 µM | NCI-H23 28.2 µM | U-251 48.9 µM | SW-620 > 100 µM | UO-31 51.9 µM | UACC-257 78.7 µM

N#Cc1ccccc1Sc1ccccc1N
inactive: SK-MEL-28 > 100 µM | SF-268 > 100 µM | COLO 205 > 100 µM | MOLT-4 43.8 µM | IGROV-1 31.7 µM | HOP-92 20.7 µM | SK-MEL-2 > 100 µM | Malme-3M 42.8 µM | TK-10 > 100 µM | OVCAR-5 36.1 µM | NCI-H23 67.8 µM | U-251 > 100 µM | SW-620 > 100 µM | UO-31 45.6 µM | UACC-257 > 100 µM

FC(F)(F)C1(Cl)C(c2ccccc2)=C1c1ccccc1
inactive: SK-MEL-28 14.9 µM | SF-268 16.9 µM | COLO 205 16.6 µM | HCT-116 13.9 µM | MOLT-4 4.01 µM | IGROV-1 15.5 µM | M14 12.8 µM | HOP-92 14.8 µM | SK-MEL-2 15 µM | Malme-3M 15.1 µM | TK-10 20.9 µM | OVCAR-5 17.4 µM | NCI-H23 15.7 µM | U-251 14.7 µM | SW-620 13.4 µM | UO-31 17.9 µM | UACC-257 14 µM

COC(=O)C1C(OCc2ccccc2)C2CCC1(OC)C=C2C (configuration not stated)
inactive: SK-MEL-28 > 100 µM | SF-268 > 100 µM | COLO 205 > 100 µM | HCT-116 61.4 µM | MOLT-4 24.9 µM | IGROV-1 > 100 µM | M14 60.8 µM | HOP-92 > 100 µM | SK-MEL-2 > 50.8 µM | Malme-3M > 100 µM | TK-10 > 74.3 µM | OVCAR-5 > 100 µM | NCI-H23 > 88.5 µM | U-251 > 55.2 µM | SW-620 > 100 µM | UO-31 > 100 µM | UACC-257 42.8 µM

O=C1SC(c2ccccc2)(c2ccccc2)c2ccccc21
inactive: SK-MEL-28 > 100 µM | SF-268 > 100 µM | COLO 205 > 100 µM | HCT-116 > 100 µM | MOLT-4 82.8 µM | IGROV-1 > 100 µM | M14 64.6 µM | SK-MEL-2 > 100 µM | Malme-3M > 100 µM | TK-10 88.3 µM | NCI-H23 > 100 µM | U-251 > 100 µM | SW-620 71.6 µM | UO-31 56.2 µM | UACC-257 > 100 µM

c1ccc2c(c1)cc(C1NCCc3nc[nH]c31)c1ccccc12 (configuration not stated)
inactive: SK-MEL-28 > 47.6 µM | SF-268 77.1 µM | COLO 205 13.5 µM | HCT-116 21.1 µM | MOLT-4 21 µM | IGROV-1 > 54.6 µM | M14 18.5 µM | HOP-92 > 44.4 µM | SK-MEL-2 18.4 µM | Malme-3M 30.6 µM | TK-10 > 100 µM | OVCAR-5 > 74.3 µM | NCI-H23 > 100 µM | U-251 39.1 µM | SW-620 25.5 µM | UO-31 33.7 µM | UACC-257 31 µM

[N-]=[N+]=NC1(c2ccccc2)C(=O)C(Cl)=C(c2ccccc2)N(c2ccccc2)C1=O (configuration not stated)
inactive: SK-MEL-28 > 100 µM | SF-268 > 100 µM | COLO 205 > 100 µM | HCT-116 > 100 µM | MOLT-4 58.5 µM | IGROV-1 > 100 µM | M14 > 100 µM | HOP-92 > 100 µM | SK-MEL-2 > 100 µM | Malme-3M > 100 µM | TK-10 > 100 µM | OVCAR-5 > 100 µM | NCI-H23 64.9 µM | U-251 > 100 µM | SW-620 > 100 µM | UO-31 97.3 µM | UACC-257 > 100 µM

O=C(O)C(CS)NCc1c2ccccc2[n+]([O-])c2ccccc12 (configuration not stated)
inactive: SK-MEL-28 35.2 µM | SF-268 23 µM | COLO 205 78.3 µM | HCT-116 5.87 µM | MOLT-4 13.8 µM | IGROV-1 33.2 µM | M14 46.1 µM | HOP-92 2.49 µM | SK-MEL-2 45.6 µM | Malme-3M 63.1 µM | TK-10 95.1 µM | OVCAR-5 > 100 µM | NCI-H23 31 µM | U-251 45.4 µM | SW-620 27.4 µM | UO-31 17.5 µM | UACC-257 > 100 µM

CC(C)(C)NNC(=O)CCn1[nH]c(=O)c(Cl)c(Cl)c1=O
inactive: SK-MEL-28 > 100 µM | SF-268 > 100 µM | COLO 205 > 100 µM | MOLT-4 > 100 µM | IGROV-1 > 100 µM | M14 > 100 µM | SK-MEL-2 > 100 µM | Malme-3M > 100 µM | TK-10 > 100 µM | OVCAR-5 > 100 µM | NCI-H23 > 100 µM | U-251 > 100 µM | SW-620 > 100 µM | UO-31 > 100 µM | UACC-257 > 100 µM

CC(C)OP(=O)(OC(C)C)/C(=N/Nc1ccc([N+](=O)[O-])cc1)NNC(=O)c1ccccc1
inactive: SK-MEL-28 40.6 µM | SF-268 36.7 µM | COLO 205 36.1 µM | HCT-116 34.2 µM | MOLT-4 17.2 µM | M14 33.2 µM | HOP-92 24.9 µM | SK-MEL-2 43.2 µM | Malme-3M > 100 µM | TK-10 > 100 µM | OVCAR-5 > 100 µM | NCI-H23 24.7 µM | U-251 26.1 µM | SW-620 32.8 µM | UO-31 41.5 µM | UACC-257 37.3 µM

Cc1nc(=O)[nH]c2[nH][nH]c(=O)c12
inactive: SK-MEL-28 > 100 µM | SF-268 > 100 µM | COLO 205 > 100 µM | HCT-116 > 100 µM | MOLT-4 > 100 µM | IGROV-1 > 100 µM | M14 > 100 µM | HOP-92 > 100 µM | SK-MEL-2 > 100 µM | Malme-3M > 100 µM | TK-10 > 100 µM | OVCAR-5 > 100 µM | NCI-H23 > 100 µM | U-251 > 100 µM | SW-620 > 100 µM

O=C1NC2(CCCC2)C(=O)C12CCCC2
inactive: SK-MEL-28 > 100 µM | SF-268 > 100 µM | COLO 205 > 100 µM | HCT-116 > 100 µM | MOLT-4 > 100 µM | IGROV-1 > 100 µM | M14 > 100 µM | HOP-92 > 100 µM | SK-MEL-2 > 100 µM | Malme-3M > 100 µM | TK-10 > 100 µM | OVCAR-5 > 100 µM | NCI-H23 > 100 µM | U-251 > 100 µM | SW-620 > 100 µM | UO-31 > 100 µM | UACC-257 > 100 µM

C#CCOCn1cnc2ncnc(N)c21
inactive: SK-MEL-28 > 100 µM | SF-268 > 100 µM | COLO 205 > 100 µM | HCT-116 > 100 µM | MOLT-4 > 100 µM | IGROV-1 > 100 µM | HOP-92 > 100 µM | SK-MEL-2 > 100 µM | Malme-3M > 100 µM | TK-10 > 100 µM | OVCAR-5 > 100 µM | NCI-H23 > 100 µM | U-251 > 100 µM | SW-620 > 100 µM | UO-31 > 100 µM | UACC-257 > 100 µM

CC(=O)N(C)OC(=O)CC(=O)c1ccccc1
inactive: SK-MEL-28 > 100 µM | SF-268 > 100 µM | COLO 205 > 100 µM | HCT-116 > 100 µM | MOLT-4 > 100 µM | IGROV-1 > 100 µM | M14 > 100 µM | HOP-92 > 100 µM | Malme-3M > 100 µM | TK-10 > 100 µM | OVCAR-5 > 100 µM | NCI-H23 > 100 µM | U-251 > 100 µM | SW-620 > 100 µM | UO-31 > 100 µM | UACC-257 > 100 µM

C=CC[P@]1(=O)O[C@H](c2ccccc2)[C@H](C)N1C
inactive: SK-MEL-28 > 100 µM | SF-268 > 100 µM | MOLT-4 > 100 µM | IGROV-1 > 100 µM | M14 > 100 µM | Malme-3M > 100 µM | TK-10 > 100 µM | OVCAR-5 > 100 µM | NCI-H23 > 100 µM | U-251 > 100 µM | SW-620 > 100 µM | UO-31 > 100 µM

COC(=O)N/N=C(\C)C(CN(C)C)C(c1ccccc1)c1c(O)c2ccccc2oc1=O (configuration not stated)
inactive: SK-MEL-28 > 100 µM | SF-268 > 100 µM | COLO 205 > 100 µM | HCT-116 > 100 µM | MOLT-4 > 100 µM | IGROV-1 > 100 µM | M14 > 100 µM | HOP-92 27.2 µM | SK-MEL-2 > 100 µM | Malme-3M > 100 µM | TK-10 > 100 µM | OVCAR-5 > 100 µM | NCI-H23 > 100 µM | U-251 > 100 µM | SW-620 > 100 µM | UO-31 > 100 µM | UACC-257 > 100 µM

O=C(CCc1n[nH]c(=S)o1)Nc1ccc(Cl)cc1Cl
inactive: SK-MEL-28 > 100 µM | SF-268 > 100 µM | COLO 205 > 100 µM | HCT-116 33.9 µM | MOLT-4 > 100 µM | IGROV-1 > 100 µM | M14 > 100 µM | HOP-92 68.7 µM | Malme-3M > 100 µM | TK-10 > 100 µM | OVCAR-5 > 100 µM | NCI-H23 > 100 µM | U-251 > 100 µM | SW-620 15.5 µM | UO-31 > 100 µM | UACC-257 > 100 µM

Source: ChEMBL document CHEMBL1201862, “PubChem BioAssay data set” (2004)
